Laboratory results taken from patent US20240293413A1, “COMPOUND AND METHOD FOR TREATING CHEMOTHERAPY-RELATED GASTROINTESTINAL SIDE EFFECTS” (ONQUALITY PHARMACEUTICALS CHINA LTD., priority 2021, published 2024).

System: Chemotherapeutic agent-caused diarrhea models of Balb/c mice
Experiment: Examples 1-229 (Table 3): oral CDK inhibitor, relief of diarrhea caused by a chemotherapeutic agent;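 note: percent of treated mice whose diarrhea grade fell below chemotherapy-group average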
Type: in vivo
Excerpt: Construction of mouse animal models: Chemotherapeutic agent-caused diarrhea models of Balb/c mice were constructed according to the administration mode and frequency of the chemotherapeutic agent as shown in Table 3.
Balb/c mice were fed for 1 week, and then divided into groups. The experiment was divided into a control group, a chemotherapeutic agent group, and a CDK inhibitor group, each of which comprised 10 mice, to perform the administration experiment, for which the administration dosage, mode, time and frequency were shown in Table 3. The control group: being intragastrically administered with the same solvent as that used in the CDK inhibitor group (the time was shown in Table 3), and then being injected/intragastrically administered with the same solvent as that used in the chemotherapeutic agent group (the administration mode was shown in Table 3): the chemotherapeutic agent group: being intragastrically administered with the same solvent as that used in the CDK inhibitor group (the time was shown in Table 3), and then being injected/intragastrically administered with the chemotherapeutic agent (the type, administration mode and dosage were shown in Table 3); the CDK inhibitor group: being intragastrically administered with the CDK inhibitor (the time was shown in Table 3), and then being administered with the chemotherapeutic agent (the mode and dosage were shown in Table 3).
The diarrhea grading of mice was observed and recorded every day.

O=C1Nc2ccc([N+](=O)[O-])cc2/C1=C1/Nc2ccc(O)cc2/C1=N\O [AGM-130]
Relative remission rate (%) (Example 39, Fluorouracil (5-Fu) intraperitoneal injection 125 mg/kg single, CDK inhibitor oral 80 mg/kg single 12 h before, cycle 10 days): 30%

C[C@H]1CC[C@H](n2c3cnccc3c3cnc(Nc4ccc5c(n4)CCN(C(=O)CO)C5)nc32)CC1 [AMG925]
Relative remission rate (%) (Example 219, Fluorouracil 100 mg/kg and oxaliplatin 10 mg/kg intraperitoneal injection single, CDK inhibitor oral 150 mg/kg single, 2 h before, 10 days): 60%

O=C(NC1CCNCC1)c1[nH]ncc1NC(=O)c1c(Cl)cccc1Cl [AT-7519]
Relative remission rate (%) (Example 205, Gemcitabine 60 mg/kg and paclitaxel 10 mg/kg intravenous injection single, CDK inhibitor oral 50 mg/kg single, 4 h before, 8 days): 20%

CN1CC[C@H](c2c(O)cc(O)c3c(=O)cc(-c4ccccc4Cl)oc23)[C@H](O)C1 [Alvocidib]
Relative remission rate (%) (Example 119, Irinotecan (CPT-11) intraperitoneal injection 240 mg/kg single, CDK inhibitor oral 70 mg/kg single 6 h before, cycle 7 days): 40%
Relative remission rate (%) (Example 201, Gemcitabine 60 mg/kg and paclitaxel 10 mg/kg intravenous injection single, CDK inhibitor oral 70 mg/kg single, 6 h before, 8 days): 50%

COc1cc(F)ccc1-c1ncnc(Nc2cccc(C[S@](C)(=N)=O)c2)n1 [Atuveciclib]
Relative remission rate (%) (Example 158, Docetaxel (DTX) intraperitoneal injection 10 mg/kg single, CDK inhibitor oral 50 mg/kg single 10 h before, cycle 8 days): 30%

COc1cc(F)ccc1-c1cc(Nc2cc(CS(C)(=N)=O)ccn2)ncc1F (centres unmarked) [BAY-1251152]
Relative remission rate (%) (Example 38, Fluorouracil (5-Fu) intraperitoneal injection 125 mg/kg single, CDK inhibitor oral 60 mg/kg single 8 h before, cycle 10 days): 20%

CN1CCN(C(=O)c2ccc3cc(CCNc4ncnc5ccc(C#N)cc45)ccc3c2)CC1 [BCD-115]
Relative remission rate (%) (Example 157, Docetaxel (DTX) intraperitoneal injection 10 mg/kg single, CDK inhibitor oral 80 mg/kg single 10 h before, cycle 8 days): 40%
Relative remission rate (%) (Example 217, Fluorouracil 100 mg/kg and irinotecan 200 mg/kg intravenous injection single, CDK inhibitor oral 80 mg/kg single, 4 h before, 10 days): 20%

CC(=O)c1c(C)c2cnc(Nc3ccc(C4CCN(CCS(C)(=O)=O)CC4)cn3)nc2n(C2CCCC2)c1=O [BEBT-209]
Relative remission rate (%) (Example 187, Gemcitabine (GEM) intraperitoneal injection 120 mg/kg single, CDK inhibitor oral 80 mg/kg single, 4 h before, 8 days): 40%
Relative remission rate (%) (Example 207, Carboplatin 5 mg/kg and paclitaxel 10 mg/kg intraperitoneal injection single, CDK inhibitor oral 80 mg/kg single, 4 h before, 10 days): 50%

Nc1nccc(-c2ccc(O)c(-c3ccnc(N)n3)n2)n1 [BEY-1107]
Relative remission rate (%) (Example 154, Docetaxel (DTX) intraperitoneal injection 10 mg/kg single, CDK inhibitor oral 150 mg/kg single 8 h before, cycle 8 days): 40%
Relative remission rate (%) (Example 216, Fluorouracil 100 mg/kg and irinotecan 200 mg/kg intravenous injection single, CDK inhibitor oral 150 mg/kg single, 2 h before, 10 days): 30%

CCN1CCN(Cc2ccc(Nc3ncc(F)c(-c4cc(F)c5nc6n(c5c4)C(C)CCC6)n3)nc2)CC1 (centres unmarked) [BPI-16350]
Relative remission rate (%) (Example 30, Fluorouracil (5-Fu) intraperitoneal injection 125 mg/kg single, CDK inhibitor oral 150 mg/kg single 6 h before, cycle 10 days): 80%
Relative remission rate (%) (Example 71, Oxaliplatin intraperitoneal injection 20 mg/kg single, CDK inhibitor oral 150 mg/kg single 4 h before, cycle 8 days): 40%
Relative remission rate (%) (Example 196, Gemcitabine 60 mg/kg and paclitaxel 10 mg/kg intraperitoneal injection single, CDK inhibitor oral 150 mg/kg single, 2 h before, 8 days): 50%

Cl.Cl.Cl.Cl.OC[C@@H](O)[C@@H](CO)N1CCNCCNCCNCC1 [CS-3002]
Relative remission rate (%) (Example 149, Docetaxel (DTX) intraperitoneal injection 10 mg/kg single, CDK inhibitor oral 200 mg/kg single 4 h before, cycle 8 days): 70%
Relative remission rate (%) (Example 223, Fluorouracil 100 mg/kg and oxaliplatin 10 mg/kg intraperitoneal injection single, CDK inhibitor oral 200 mg/kg single, 2 h before, 10 days): 50%

CN1CCN(C2CCN(c3ccc(Nc4ncc5sc(C(=O)N(C)C)c(C6CCCC6)c5n4)nc3)CC2)CC1 [FCN437]
Relative remission rate (%) (Example 147, Docetaxel (DTX) intraperitoneal injection 10 mg/kg single, CDK inhibitor oral 90 mg/kg single 8 h before, cycle 8 days): 60%
Relative remission rate (%) (Example 206, Carboplatin 5 mg/kg and paclitaxel 10 mg/kg intraperitoneal injection single, CDK inhibitor oral 90 mg/kg single, 4 h before, 10 days): 40%

CC1CCC(n2c3cnccc3c3cnc(Nc4ccc5c(n4)CCN(C(=O)CO)C5)nc32)CC1 (centres unmarked) [FLX-925]
Relative remission rate (%) (Example 27, Fluorouracil (5-Fu) intraperitoneal injection 125 mg/kg single, CDK inhibitor oral 75 mg/kg single 4 h before, cycle 10 days): 50%
Relative remission rate (%) (Example 69, Oxaliplatin intraperitoneal injection 20 mg/kg single, CDK inhibitor oral 75 mg/kg single 4 h before, cycle 8 days): 60%
Relative remission rate (%) (Example 85, Oxaliplatin intravenous injection 17.5 mg/kg single, CDK inhibitor oral 75 mg/kg single 6 h before, cycle 8 days): 60%
Relative remission rate (%) (Example 114, Irinotecan (CPT-11) intramuscular injection 250 mg/kg single, CDK inhibitor oral 75 mg/kg single 4 h before, cycle 7 days): 50%

CC[C@H](Nc1nc(NCc2cnc(C)cc2C)c2ncn(C(C)C)c2n1)[C@@H](C)O [Fadraciclib]
Relative remission rate (%) (Example 122, Irinotecan (CPT-11) intraperitoneal injection 240 mg/kg single, CDK inhibitor oral 80 mg/kg single 8 h before, cycle 7 days): 30%
Relative remission rate (%) (Example 159, Docetaxel (DTX) intraperitoneal injection 10 mg/kg single, CDK inhibitor oral 80 mg/kg single 12 h before, cycle 8 days): 20%

CC(C)N1CCN(c2ccc(Nc3ncc4cc5n(c4n3)C3(CCCCC3)CNC5=O)nc2)CC1 [G1T38]
Relative remission rate (%) (Example 40, Fluorouracil (5-Fu) intraperitoneal injection 125 mg/kg single, CDK inhibitor oral 150 mg/kg single 1 h before, cycle 10 days): 20%
Relative remission rate (%) (Example 41, Fluorouracil (5-Fu) intraperitoneal injection 125 mg/kg single, CDK inhibitor oral 150 mg/kg single 4 h before, cycle 10 days): 40%
Relative remission rate (%) (Example 42, Fluorouracil (5-Fu) intraperitoneal injection 125 mg/kg single, CDK inhibitor oral 150 mg/kg single 8 h before, cycle 10 days): 70%
Relative remission rate (%) (Example 43, Fluorouracil (5-Fu) intraperitoneal injection 125 mg/kg single, CDK inhibitor oral 150 mg/kg single 16 h before, cycle 10 days): 50%
Relative remission rate (%) (Example 79, Oxaliplatin intraperitoneal injection 20 mg/kg single, CDK inhibitor oral 150 mg/kg single 1 h before, cycle 8 days): 20%
Relative remission rate (%) (Example 80, Oxaliplatin intraperitoneal injection 20 mg/kg single, CDK inhibitor oral 150 mg/kg single 2 h before, cycle 8 days): 40%
Relative remission rate (%) (Example 81, Oxaliplatin intraperitoneal injection 20 mg/kg single, CDK inhibitor oral 150 mg/kg single 4 h before, cycle 8 days): 40%
Relative remission rate (%) (Example 82, Oxaliplatin intraperitoneal injection 20 mg/kg single, CDK inhibitor oral 150 mg/kg single 8 h before, cycle 8 days): 70%
Relative remission rate (%) (Example 83, Oxaliplatin intraperitoneal injection 20 mg/kg single, CDK inhibitor oral 150 mg/kg single 12 h before, cycle 8 days): 70%
Relative remission rate (%) (Example 84, Oxaliplatin intraperitoneal injection 20 mg/kg single, CDK inhibitor oral 150 mg/kg single 16 h before, cycle 8 days): 50%
Relative remission rate (%) (Example 125, Irinotecan (CPT-11) intraperitoneal injection 240 mg/kg single, CDK inhibitor oral 150 mg/kg single 4 h before, cycle 7 days): 50%
Relative remission rate (%) (Example 126, Irinotecan (CPT-11) intraperitoneal injection 240 mg/kg single, CDK inhibitor oral 150 mg/kg single 6 h before, cycle 7 days): 60%
Relative remission rate (%) (Example 128, Irinotecan (CPT-11) intramuscular injection 240 mg/kg single, CDK inhibitor oral 150 mg/kg single 2 h before, cycle 7 days): 50%
Relative remission rate (%) (Example 163, Docetaxel (DTX) intraperitoneal injection 10 mg/kg single, CDK inhibitor oral 150 mg/kg single 8 h before, cycle 8 days): 70%
Relative remission rate (%) (Example 164, Docetaxel (DTX) intraperitoneal injection 10 mg/kg single, CDK inhibitor oral 150 mg/kg single 12 h before, cycle 8 days): 60%
Relative remission rate (%) (Example 211, Carboplatin 5 mg/kg and paclitaxel 10 mg/kg intraperitoneal injection single, CDK inhibitor oral 150 mg/kg single, 8 h before, 10 days): 40%
Relative remission rate (%) (Example 212, Carboplatin 5 mg/kg and paclitaxel 10 mg/kg intraperitoneal injection single, CDK inhibitor oral 150 mg/kg single, 12 h before, 10 days): 70%

CC1=Nc2c(F)cc(-c3nc(Nc4ccc(C5CCN(C)CC5)cn4)ncc3F)cc2C12CCCC2 [GLR2007]
Relative remission rate (%) (Example 155, Docetaxel (DTX) intraperitoneal 10 mg/kg single, CDK inhibitor oral 60 mg/kg single 8 h before, cycle 8 days): 50%
Relative remission rate (%) (Example 168, Docetaxel (DTX) intravenous injection 10 mg/kg single, CDK inhibitor oral 60 mg/kg single 4 h before, cycle 8 days): 30%
Relative remission rate (%) (Example 191, Gemcitabine (GEM) intraperitoneal injection 120 mg/kg single, CDK inhibitor oral 60 mg/kg single, 10 h before, 8 days): 50%

NS(=O)(=O)c1ccc(S(=O)(=O)Nc2cccc3c(Cl)c[nH]c23)cc1 [Indisulam]
Relative remission rate (%) (Example 74, Oxaliplatin intraperitoneal injection 20 mg/kg single, CDK inhibitor oral 175 mg/kg single 4 h before, cycle 8 days): 20%
Relative remission rate (%) (Example 190, Gemcitabine (GEM) intraperitoneal injection 120 mg/kg single, CDK inhibitor oral 175 mg/kg single, 4 h before, 8 days): 40%

CN1CCN(c2ccc(Nc3ncc4cc(C#N)c(=O)n(C5CCCC5)c4n3)cc2)CC1 [ON123300]
Relative remission rate (%) (Example 121, Irinotecan (CPT-11) intraperitoneal injection 240 mg/kg single, CDK inhibitor oral 250 mg/kg single 8 h before, cycle 7 days): 60%
Relative remission rate (%) (Example 202, Gemcitabine 60 mg/kg and paclitaxel 10 mg/kg intraperitoneal injection single, CDK inhibitor oral 250 mg/kg single, 2 h before, 8 days): 50%

CC(=O)c1c(C)c2cnc(N[C@@H]3CCOC[C@H]3O)cc2n(C2CCCC2)c1=O [PF-06842874]
Relative remission rate (%) (Example 210, Carboplatin 5 mg/kg and paclitaxel 10 mg/kg intraperitoneal injection single, CDK inhibitor oral 80 mg/kg single, 6 h before, 10 days): 40%
Relative remission rate (%) (Example 222, Fluorouracil 100 mg/kg and oxaliplatin 10 mg/kg intraperitoneal injection single, CDK inhibitor oral 80 mg/kg single, 4 h before, 10 days): 30%

COCc1cc(C(=O)Nc2cc([C@H]3CC[C@@H](OC(=O)NC(C)C)C3)[nH]n2)n(C)n1 [PF-07104091]
Relative remission rate (%) (Example 161, Docetaxel (DTX) intraperitoneal injection 10 mg/kg single, CDK inhibitor oral 50 mg/kg single 8 h before, cycle 8 days): 40%
